Assays:
HIV LTR promoter = experiment: HIV LTR-driven CAT activity assay in U38 cells; assay type: cell-based
Source text: ACH-2 and U38 cell lines (25, 26) were obtained from the NIH AIDS Reagent Program. DNA extracted from ACH-2 cells was used as a positive standard for HIV DNA PCR as previously reported (27). The U38 cell line contains stably integrated, silent copies of the HIV LTR (long terminal repeat) promoter linked to a CAT (chloramphenicol acetyltransferase) gene and was used to study the effect of SP and/or CP-96,345 and R-113281 on the activation of HIV LTR promoter.
Chloramphenicol acetyltransferase (CAT) activity assay: U38 cells (2×10^6 cells) were incubated with different concentrations of SP and/or CP-96,345 or R-113281 for 48 h. Untreated U38 cells were used as a background control. Cellular proteins were extracted using 1X Reporter Lysis Bufffer (Promega Corp., Madison, Wis.). The lysates were incubated with a mixture containing 0.15 μCi of ^14C-labeled chloramphenicol (DuPont Inc., Boston, Mass.) and 200 μg/ml of n-Butyryl CoA (Promega Corp., Madison, Wis.) in a total volume of 125 μl at 37° C. for 3 h. The acetylated forms of chloramphenicol were extracted with xylene (Aldrich Chemical Company, Milwaukee, Wis.). CAT activity of each sample was quantified using a liquid-scintillation counter (Packard Instrument Company, Downers Grove, Ill.). The results were expressed as the ratio of CAT activity (CPM) of the SP and/or CP-96,345-treated or R-113281-treated U38 to that of the background control.

HIV Bal strain = experiment: HIV RT activity in culture supernatants of HIV Bal strain-infected MDM; assay type: cell-based, HIV-1; details: for HIV RT activity increased: MDM, HIV Bal
Procedure: The cells were also incubated with SP and/or anti-SP antibody. In this case, SP was incubated with (1:1000 dilution in 10% FCS DMEM) or without anti-SP antibody at room temperature for 10 min and then the mixture was added to the cell cultures for 2 h. When the cells were treated with the combination of CP-96,345 and SP, or CP-96,345, SP and anti-SP antibody, CP-96,345 was incubated with the cell culture for 10 min and then SP was added to the MDM or CP-96,345, SP and anti-SP (1:1000 in 10% FCS DMEM) were incubated for 10 min at room temperature and the mixture was incubated with the MDM for 2 h before infection with HIV. Untreated MDM served as controls. The cells were treated prior to, during, and throughout the infection.
HIV Infection: After 2 h incubation with or without the reagents described above, the cells were infected with equal amounts of cell-free HIV based on p24 antigen content (20 ng/10^6 cells) overnight, and then washed to remove unbound virus. Fresh media containing SP and/or CP-96,345 or anti-SP antibody were added to the MDM as described above. The culture media and the reagents were replaced twice weekly. The culture supernatants were harvested for HIV reverse transcriptase (RT) activity determinations. After HIV infection, the MDM were incubated for 8 to 12 days. At the termination of the experiments, cellular RNA was extracted for assessment of HIV gag gene expression using RT-PCR or real time RT-PCR assays.
The HIV RT activity assay was carried out based on the technique of Willey et al. (30) with modification (22).

CCR5 = experiment: Flow cytometry of CCR5 receptor expression on MDM; assay type: cell-based, human; details: incubated overnight (24 h); direct immunofluorescence
Procedure: The cells were removed from the culture plate and then resuspended in 100 μl of phosphate-buffered saline (PBS). After incubation with 20 μl of either anti-CCR5-FITC or anti-CXCR4-FITC or anti-CD4-FITC or anti-CD14-FITC for 45 min at 4° C., the cells were washed twice with PBS and fixed with 1% paraformaldehyde in PBS. Fluorescein-conjugated control antibodies were isotype-matched IgG. Fluorescence was analyzed on an EPICS-Elite flow cytometer (Beckman-Coulter Electronics, Hialeah, Fla.).

Compound: Substance P [SP]
- HIV LTR-driven CAT activity (HIV LTR promoter; SP 10^−10 to 10^−6M, 48 h, P<0.05 vs untreated control cells): significantly increased
- HIV LTR-driven CAT activity (HIV LTR promoter; SP (10^−5M), 48 hours): significantly increases
- HIV RT activity increased (HIV Bal strain; SP 10^−6M, 12 days after infection): 58%
- HIV RT activity increased (HIV Bal strain; SP 10^−8M, 12 days after infection): 40%
- HIV RT activity increased (HIV Bal strain; SP 10^−10M, 12 days after infection): 14%
- HIV replication in MDM (HIV RT activity and HIV gag mRNA levels) (HIV Bal strain; SP alone 10^−6M, 12 days after infection): enhanced HIV replication

Compound: COc1ccccc1CN[C@H]1C2CCN(CC2)[C@H]1C(c1ccccc1)c1ccccc1 [CP-96,344]
- CCR5 receptor expression on MDM (percentage positive cells) (CCR5): did not affect
- viral replication as determined by HIV RT activity (HIV Bal strain; 10^−7M, 8 days after infection, vs HIV infection control): did not have the effect

From patent US6676950B2, “Neurokinin receptor antagonists and methods of use thereof for inhibiting HIV infection” (The Children's Hospital of Philadelphia, priority 2001, dated 2004)
